Laboratory results as given in patent publication US6608082B1, “Treatment of erectile dysfunction using isoquinoline compound melanocortin receptor ligands” (Lion Bioscience AG, priority 1998, dated 2003).

Columns and labels:
MCR-1 = biological target: T1, MCR-1 (Homo sapiens, UniProt Q01726); experiment: Melanocortin receptor binding assay, competition with 125I-HP 467, HEK 293 cells expressing hMCR-1; details: for IC50: inhibition of binding of 125I-HP 467, HEK 293 cells expressing MCR-1, read-out: MC-1 IC50
T1 construct: expressed in transfected cells; host or cells: HEK 293
T1 sequence (Q01726 whole entry): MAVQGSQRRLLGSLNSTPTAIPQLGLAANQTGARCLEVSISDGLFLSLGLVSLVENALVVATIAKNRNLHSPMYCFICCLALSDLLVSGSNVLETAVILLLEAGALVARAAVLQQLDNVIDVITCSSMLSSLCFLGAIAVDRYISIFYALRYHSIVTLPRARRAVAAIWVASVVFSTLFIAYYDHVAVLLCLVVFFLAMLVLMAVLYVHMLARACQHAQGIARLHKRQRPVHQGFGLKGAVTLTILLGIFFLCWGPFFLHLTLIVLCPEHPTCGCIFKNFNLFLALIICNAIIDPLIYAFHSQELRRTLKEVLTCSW
In short: (§1)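 Intact-cell competition binding, 2.5 hr at 37 °C, in PBS/10% calf serum/1 mM CaCl2; hMCR-4 cells at 4×10^3 per tube, hMCR-1 cells at 2×10^4 per tube. Filtration on BSA/CaCl2-soaked GF/B, cold 50 mM Tris pH 7.4 washes, scintillation count.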

MCR-4 = biological target: T2, MCR-4 (Homo sapiens, UniProt P32245); experiment: Melanocortin receptor binding assay, competition with 125I-HP 467, HEK 293 cells expressing hMCR-4; details: inhibition of binding of 125I-HP 467, HEK 293 cells expressing MCR-4; read-out: MC-4 IC50
T2 construct: expressed in transfected cells; host or cells: HEK 293
T2 sequence (P32245 whole entry): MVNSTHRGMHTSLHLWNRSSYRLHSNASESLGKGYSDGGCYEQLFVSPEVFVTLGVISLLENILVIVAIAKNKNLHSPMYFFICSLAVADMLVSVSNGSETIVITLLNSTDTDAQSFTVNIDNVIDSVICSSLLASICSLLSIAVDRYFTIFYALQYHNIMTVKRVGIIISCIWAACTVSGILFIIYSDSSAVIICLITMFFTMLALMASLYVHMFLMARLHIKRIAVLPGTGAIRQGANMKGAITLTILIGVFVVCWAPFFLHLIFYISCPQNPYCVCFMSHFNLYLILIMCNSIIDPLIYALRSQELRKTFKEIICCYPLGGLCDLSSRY
In short: as §1

In the case of CCNc1ccc(C2C(CNCCc3ccccc3)c3ccccc3CN2CCCC(CN)NCCc2ccc(OC)cc2)cc1 (centres unmarked) [TRG 2411-157], the IC50 (MCR-1) is reported as 110 nM and the IC50 (MCR-4) is reported as 670 nM.

CCNc1ccc(C2C(CNCCc3ccccc3)c3ccccc3CN2CCCC(CN)NCc2ccccc2)cc1 (centres unmarked) [TRG 2411-158] was tested, and the IC50 (MCR-1) was 100 nM and the IC50 (MCR-4) was 410 nM.

In the case of CCNc1ccc(C2C(CNCCc3ccccc3)c3ccccc3CN2CCCC(CN)NCc2ccc(Cl)cc2)cc1 (centres unmarked) [TRG 2411-159], the IC50 (MCR-1) is reported as 100 nM and the IC50 (MCR-4) is reported as 350 nM.

With CCNc1ccc(C2C(CNCCc3ccccc3)c3ccccc3CN2CCCC(CN)NCc2ccc(OC)cc2)cc1 (centres unmarked) [TRG 2411-160] the IC50 (MCR-1) was 90 nM and the IC50 (MCR-4) was 510 nM.

CCNc1ccc(C2C(CNCCc3ccccc3)c3ccccc3CN2CCCC(CN)NCCc2ccc3ccccc3c2)cc1 (centres unmarked) [TRG 2411-161] showed an IC50 (MCR-1) of 160 nM and an IC50 (MCR-4) of 640 nM.

CCNc1ccc(C2C(CNCCc3ccccc3)c3ccccc3CN2CCCC(CN)NCCC2CCCCC2)cc1 (centres unmarked) [TRG 2411-162] gave an IC50 (MCR-1) of 110 nM and an IC50 (MCR-4) of 1220 nM.

With CCNc1ccc(C2C(CNC3CCCCC3)c3ccccc3CN2CCCC(CN)NCC)cc1 (centres unmarked) [TRG 2411-164] the IC50 (MCR-1) was 180 nM and the IC50 (MCR-4) was 4020 nM.

In the case of CCNc1ccc(C2C(CNC3CCCCC3)c3ccccc3CN2CCCC(CN)NCCc2ccc(Br)cc2)cc1 (centres unmarked) [TRG 2411-167], the IC50 (MCR-1) is reported as 370 nM and the IC50 (MCR-4) is reported as 1110 nM.

For CCNc1ccc(C2C(CNC3CCCCC3)c3ccccc3CN2CCCC(CN)NCc2ccccc2)cc1 (centres unmarked) [TRG 2411-169], the IC50 (MCR-1) was 220 nM and the IC50 (MCR-4) was 440 nM.

CCNc1ccc(C2C(CNC3CCCCC3)c3ccccc3CN2CCCC(CN)NCCC2CCCCC2)cc1 (centres unmarked) [TRG 2411-173] showed an IC50 (MCR-1) of 140 nM and an IC50 (MCR-4) of 1590 nM.

With CCNc1ccc(C2C(CN)c3ccccc3CN2CCCC(CN)NCCc2ccccc2)cc1 (centres unmarked) [TRG 2411-179] the IC50 (MCR-1) was 70 nM and the IC50 (MCR-4) was 1430 nM.

CCNc1ccc(C2C(CN)c3ccccc3CN2CCCC(CN)NCCc2ccc(Br)cc2)cc1 (centres unmarked) [TRG 2411-180] gave an IC50 (MCR-1) of 120 nM and an IC50 (MCR-4) of 1060 nM.

In the case of CCNc1ccc(C2C(CN)c3ccccc3CN2CCCC(CN)NCc2ccc(OC)cc2)cc1 (centres unmarked) [TRG 2411-184], the IC50 (MCR-1) is reported as 90 nM and the IC50 (MCR-4) is reported as 1610 nM.

For CCNc1ccc(C2C(CN)c3ccccc3CN2CCCC(CN)NCCC2CCCCC2)cc1 (centres unmarked) [TRG 2411-186], the “effectiveness as MC receptor ligand” value (MCR-1; binding to MC receptors, Table 1) was “particularly effective MC receptor ligands”, the IC50 (MCR-1) was 30 nM and the IC50 (MCR-4) was 580 nM.

Molecule CCCCNc1ccc(C2C(CNCCc3ccccc3)c3ccccc3CN2CCCC(CN)NCC)cc1 (centres unmarked) [TRG 2411-190] has an IC50 (MCR-1) of 190 nM and an IC50 (MCR-4) of 210 nM.

Molecule CCCCNc1ccc(C2C(CNCCc3ccccc3)c3ccccc3CN2CCCC(CN)NCCCC)cc1 (centres unmarked) [TRG 2411-191] has an IC50 (MCR-1) of 120 nM and an IC50 (MCR-4) of 520 nM.

CCCCNc1ccc(C2C(CNCCc3ccccc3)c3ccccc3CN2CCCC(CN)N2CCCC2)cc1 (centres unmarked) [TRG 2411-192] was tested, and the IC50 (MCR-1) was 70 nM and the IC50 (MCR-4) was 880 nM.

CCCCNc1ccc(C2C(CNCCc3ccccc3)c3ccccc3CN2CCCC(CN)NCCc2ccccc2)cc1 (centres unmarked) [TRG 2411-193] showed an IC50 (MCR-1) of 150 nM and an IC50 (MCR-4) of 1240 nM.

Work on CCCCNc1ccc(C2C(CNCCc3ccccc3)c3ccccc3CN2CCCC(CN)NCCc2ccc(Br)cc2)cc1 (centres unmarked) [TRG 2411-194] yielded an IC50 (MCR-1) of 240 nM and an IC50 (MCR-4) of 1360 nM.

With CCCCNc1ccc(C2C(CNCCc3ccccc3)c3ccccc3CN2CCCC(CN)NCCc2ccc(OC)cc2)cc1 (centres unmarked) [TRG 2411-195] the IC50 (MCR-1) was 160 nM and the IC50 (MCR-4) was 1440 nM.

With CCCCNc1ccc(C2C(CNCCc3ccccc3)c3ccccc3CN2CCCC(CN)NCc2ccccc2)cc1 (centres unmarked) [TRG 2411-196] the IC50 (MCR-1) was 120 nM and the IC50 (MCR-4) was 1050 nM.

Work on CCCCNc1ccc(C2C(CNCCc3ccccc3)c3ccccc3CN2CCCC(CN)NCCC2CCCCC2)cc1 (centres unmarked) [TRG 2411-200] yielded an IC50 (MCR-1) of 130 nM and an IC50 (MCR-4) of 1340 nM.

CCCCNc1ccc(C2C(CNC3CCCCC3)c3ccccc3CN2CCCC(CN)NCCc2ccc(Br)cc2)cc1 (centres unmarked) [TRG 2411-208] showed an IC50 (MCR-1) of 470 nM and an IC50 (MCR-4) of 860 nM.

CCCCNc1ccc(C2C(CNC3CCCCC3)c3ccccc3CN2CCCC(CN)NCCc2ccc(OC)cc2)cc1 (centres unmarked) [TRG 2411-209] showed an IC50 (MCR-1) of 350 nM and an IC50 (MCR-4) of 1330 nM.

Molecule CCCCNc1ccc(C2C(CNC3CCCCC3)c3ccccc3CN2CCCC(CN)NCc2ccc(OC)cc2)cc1 (centres unmarked) [TRG 2411-212] has an IC50 (MCR-1) of 100 nM and an IC50 (MCR-4) of 1930 nM.

CCCCNc1ccc(C2C(CNC3CCCCC3)c3ccccc3CN2CCCC(CN)NCCc2ccc3ccccc3c2)cc1 (centres unmarked) [TRG 2411-213] gave an IC50 (MCR-1) of 220 nM and an IC50 (MCR-4) of 1950 nM.

CCCCNc1ccc(C2C(CN)c3ccccc3CN2CCCC(CN)NCC)cc1 (centres unmarked) [TRG 2411-218] gave an IC50 (MCR-1) of 70 nM and an IC50 (MCR-4) of 9590 nM.

Work on CCCCNc1ccc(C2C(CN)c3ccccc3CN2CCCC(CN)NCCCC)cc1 (centres unmarked) [TRG 2411-219] yielded an IC50 (MCR-1) of 100 nM and an IC50 (MCR-4) of 2970 nM.

CCOc1ccc(C2C(CNCCc3ccccc3)c3ccccc3CN2CCCCC(CN)NC)cc1 (centres unmarked) [TRG 2412-4] showed an IC50 (MCR-1) of 310 nM and an IC50 (MCR-4) of 320 nM.
